The numbers were not newly measured in patent US20050256196A1, “Decreasing brain neuronal glutamate levels using alpha-keto branched chain amino acids” (Odessa Pharma, priority 2004, published 2005), which cites them from elsewhere.

The conditions of series [1]: in vivo.
Series [2] deals with T1, glutamine synthetase (Rattus norvegicus, UniProt P09606).
The target of series [3] is T1, glutamine synthetase. The following applies: normal animals after MSO; reduced from 5.6.
Series [4] has as its target T1, glutamine synthetase. Also noted: known convulsant doses of MSO (MW 179) to rats; host or cells: rats, in vivo (endogenous enzyme).
The mark [5] stands for this setting: rats, known convulsant doses of MSO.

T1 sequence (P09606 2-373 limits assumed): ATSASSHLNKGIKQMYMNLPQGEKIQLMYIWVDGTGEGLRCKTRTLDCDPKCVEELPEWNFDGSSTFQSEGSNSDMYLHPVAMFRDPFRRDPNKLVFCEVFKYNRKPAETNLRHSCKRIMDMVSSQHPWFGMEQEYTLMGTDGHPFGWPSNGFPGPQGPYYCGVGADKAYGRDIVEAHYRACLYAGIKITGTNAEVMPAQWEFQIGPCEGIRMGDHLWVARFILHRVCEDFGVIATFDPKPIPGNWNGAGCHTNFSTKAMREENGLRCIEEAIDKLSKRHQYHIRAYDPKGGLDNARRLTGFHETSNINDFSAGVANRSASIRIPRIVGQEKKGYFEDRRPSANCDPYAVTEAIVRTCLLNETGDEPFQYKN

For the compound `CP(=O)(O)CCC(N)C(=O)O` [Glufosinate, ammonium-D-L-homoalanine-4-yl(methyl)-phosphinate], in series [1], the “crossing of the blood-brain barrier” value is recorded as “does not cross the blood-brain barrier”.
For `CS(=N)(=O)CC[C@H](N)C(=O)O` (stereo partly drawn) [MSO, L-methionine S-sulfoximine], the “reduction of nerve terminal glutamate levels” value on glutamine synthetase [2] was 52%. Besides, the “reduction of brain astrocyte levels of glutamine” value on glutamine synthetase [2] (normal animals) is on record as 66%. The “brain levels of glutamine” value at glutamine synthetase [3] was 1.8 mmol/kg brain. Also, the convulsant effect entry on glutamine synthetase [4] (depending on the dosage) is reported as “can cause periodic convulsions”.
Take `CSCC[C@H](N)C(=O)O` [L-methionine]: at glutamine synthetase [4] (setting [5]), the “convulsant activity of MSO on simultaneous administration of L-methionine” value is “prevents the convulsant activity” and the “glutamine synthetase inhibitory activity of MSO on simultaneous administration of L-methionine” value is “preserves the glutamine synthetase inhibitory activity”.
